In brackets after ≈: the same amount, converted by molar mass. Read-outs that look alike come from different tables or passages of the source. Non-standard residues stand in square brackets, D forms with d. Residues, ends and D or L forms follow the SMILES beside them. AEEA = NCCOCCOCC(=O)O
Assays:
[1] = tested on: MRSA S. aureus strains (clinical isolates)
Method: (§2) Antimicrobial activity of peptides was analyzed through determination of MIC parameter according to the standard microdilution technique performed on 96-well plates. Mueller-Hinton broth (MHB, Sigma Aldrich, St. Louis, MO, USA) was used as the working medium for all bacterial strains. Briefly, inoculum was prepared from freshly grown cultures of bacteria being at their exponential phase of growth. Each well of 96-well plates containing 100 µL of serially diluted peptides in PBS at desired concentration was inoculated with 100 µL of 10^5 CFU/mL of bacterial suspension. Then plates were incubated overnight 37 °C and absorbance was read at 600 nm after 24 h. Wells without peptide were treated as the positive control, while uninoculated MHB was defined as the negative control. All measurements were run in triplicates.

S. aureus Newman = details: S. aureus Newman; broth microdilution, MHB, 37 °C, 24 h, triplicates
Method: as §2

[2] = tested on: MRSA clinical isolate 3417; details: MRSA clinical isolate 3417 (blood); broth microdilution, MHB, 24 h
Method: as §2

[3] = tested on: MRSA clinical isolate 2492; details: MRSA clinical isolate 2492 (blood); broth microdilution, MHB, 24 h
Method: as §2

[4] = tested on: MRSA clinical isolate 7501; details: MRSA clinical isolate 7501 (blood); broth microdilution, MHB, 24 h
Method: as §2

[5] = tested on: MRSA clinical isolate 6674; details: MRSA clinical isolate 6674 (blood); broth microdilution, MHB, 24 h
Method: as §2

S. aureus USA300 [6] = test: LIVE/DEAD BacLight staining (SYTO9/PI); type: cell-based, Staphylococcus aureus; details: 3 h, n = 2
Method: USA300 cells were collected from overnight cultures, at the end of the exponential growth phase and the beginning of the stationary phase, washed and suspended at 2 × 10^7 bacteria/mL and staphylococci were treated with DAL-PEG-DK5 (0.5–50 µg/mL) for 3 h. In order to obtain a standard curve, five different proportions of live and dead bacteria were mixed prior to staining. After the incubation, the 100 µL of bacterial suspensions were transferred to flat bottom black 96-well microtitration plate. Staining solution containing SYTO9 and PI (100 µL) prepared according to manufacturer’s instructions was then mixed with bacterial suspensions. Samples were incubated at room temperature in the dark for 15 min and fluorescence intensity was measured with FlexStation3 Multimode Microplate Reader using a 485 nm excitation filter (for both SYTO9 and PI) and a 530 nm (SYTO9 emission wavelength) and 630 nm (PI emission wavelength) emission filter. The data were analyzed by dividing the fluorescence intensity of the stained bacterial suspensions at green emission by the cell fluorescence intensity of red fluorescence. All samples were prepared in triplicates.

HaCaT cells [7] = test: LDH release assay (CytoTox96); type: cell-based, human; details: for cytotoxicity (LDH), % of cells: HaCaT, 200 μg/mL
Method: (§1) Figure 3 The influence of DAL-PEG-DK5 on physiology of human keratinocytes. The potentially toxic effect of DAL-PEG-DK5 on HaCaT cells was evaluated using (A) MTT and (B) LDH assay. Cells were plated on 96-well plates and incubated overnight. Next, keratinocytes were treated with the peptide at different concentrations (5–200 μg/mL) for 3, 6, 18 h. Mean ± SD n = 2. ** p < 0.005 *** p < 0.001 **** p < 0.0001; 2way ANOVA. (C) Morphology of HaCaT cells was examined by confocal laser scanning microscopy. HaCaT cells were treated with CFS-conjugated DAL-PEG-DK5 (25 μg/mL) for 30 min at 37 °C and were stained with: DAPI and phalloidin for nuclear detection and actin cytoskeleton detection, respectively. Blue – DNA; red – f-actin; green-peptide conjugate; scale bar: 10 μm. Images present single slice of XY stacks.
To assess the effect of peptides on the integrity of the plasma membrane, the LDH release assay was performed using the CytoTox96 nonradioactive cytotoxicity assay kit (Promega, Madison, WI, USA) according to the manufacturer’s instructions. Cytotoxicity was calculated with the formula: % cytotoxicity = 100 × (experimental LDH release/ maximum LDH release), where maximum LDH release is after lysis solution addition (Triton X-100). Relative amounts of LDH release were measured (absorbance at 490 nm) using plate reader SpectraMax (Molecular Device, Wokingham, UK). All assays were performed in triplicate.

S. aureus USA300 [8] = details: MRSA; equal to 40 μg/mL
Method: as §2

[9] = tested on: MRSA clinical isolate 2706; details: MRSA clinical isolate 2706 (blood); broth microdilution, MHB, 24 h
Method: as §2

HaCaT cells [10] = test: MTT cell viability test; type: cell-based, human
Method: as §1
The viability of HaCaT cells was examined by a 3-(4,5-dimethylthiazol-2-yl)-2,5-diphenyltetrazolium bromide (MTT, Sigma-Aldrich) reduction assay. In brief, cells were incubated with 10% (v/v) of a 5 mg/mL MTT solution for 1 to 2 h at 37 °C until purple precipitate is visible and acidified isopropanol was added followed by measuring of the absorbance at a wavelength of 570 nm.

[11] = cited from earlier work
Source text: The efficient antibacterial activity of the DAL-PEG-DK5 conjugate may be due to the fact that it has a higher cationic charge than DK5 (+7 vs. +6, respectively). However, a α-helicity must also play an important role in this case. According to a common view about the mechanism underlying the antimicrobial activity of AMPs, formation of hel ...

[12] = tested on: MRSA clinical isolate 7219; details: MRSA clinical isolate 7219 (blood); broth microdilution, MHB, 24 h
Method: as §2

[13] = tested on: S. aureus USA300 (MRSA) in suspension; test: Killing of MRSA in suspension, CFU count; type: cell-based, Staphylococcus aureus; details: MRSA 2 × 10^6 CFU/mL, peptide 50 μg/mL, 1 h, n = 2
[14] = tested on: intracellular S. aureus USA300 in HaCaT cells; test: Killing of intracellular S. aureus in keratinocytes, CFU count
Method: (A) USA300 survival within infected HaCaT cells. Keratinocytes were infected with USA300 (MOI 1:5, 1:25, 1:50, 1:100) for 2.5 h and treated with DAL-PEG-DK5 (50 μg/mL) for 3 h. Afterwards, keratinocytes were lysed and plated on agar plates for counting of bacteria. The number of viable bacterial cells is expressed as CFU/mL with respect to the number of intracellular bacteria in the corresponding control samples. The data shown is representative of two separate experiments performed in triplicate. Mean ± SD n = 2. * p < 0.01; ** p < 0.005; one-way ANOVA. (B) Keratinocytes were infected with USA300 (MOI 1:50) for 2.5 h and treated with DAL-PEG-DK5 (50 μg/mL) for indicated time points (1, 3, 6 h). Afterwards, keratinocytes were lysed and plated on agar plates for counting of bacteria. The number of viable bacterial cells is expressed as a CFU/mL with respect to the number of intracellular bacteria in the corresponding control samples. Mean ± SD n = 2. * p < 0.01; ** p < 0.005; **** p < 0.0001; one-way ANOVA. […] (C) Keratinocytes were infected with USA300 (MOI 1:50) for 2.5 h and treated with DAL-PEG-DK5 (50 μg/mL) for 1 h. Afterwards, keratinocytes were lysed and plated on agar plates for counting of bacteria. […] The number of viable bacterial cells is expressed as a % of control with respect to the number of intracellular bacteria/bacteria in suspension in the corresponding control samples. […]

S. aureus ATCC 25923 = details: S. aureus ATCC 25923; broth microdilution, MHB, 37 °C, 24 h, triplicates
Method: as §2

[15] = tested on: MRSA clinical isolate 7569; details: MRSA clinical isolate 7569 (blood); broth microdilution, MHB, 24 h
Method: as §2

Structure (SMILES): CC[C@H](C)[C@H](NC(=O)COCCOCCNC(=O)[C@H](CCCNC(=N)N)NC(=O)[C@H](CC(C)C)NC(=O)[C@H](Cc1ccccc1)NC(=O)CNC(=O)[C@@H](C)NC(=O)[C@@H](N)Cc1ccc(O)cc1)C(=O)N[C@@H](CCCCN)C(=O)N[C@@H](CCCCN)C(=O)N[C@H](C(=O)N[C@@H](CC(C)C)C(=O)N[C@@H](CO)C(=O)N[C@H](CCCCN)C(=O)N[C@H](C(=O)N[C@@H](CCCCN)C(=O)N[C@@H](CCCCN)C(=O)N[C@@H](CC(C)C)C(=O)N[C@@H](CC(C)C)C(N)=O)[C@@H](C)CC)[C@@H](C)CC [DAL-PEG-DK5] (H-Y[dA]GFLR[AEEA]IKKILS[dK]IKKLL-NH2; N-terminus assumed)
- MIC against the majority of tested MRSA strains (90%) ([1]; conversion of 40 μg/mL): 17.56 µM
- MIC against the majority of tested MRSA strains (90%) ([1]; estimate of the discussion): 40 µg/mL
- MIC (S. aureus Newman): 140 µg/mL (≈ 61.5 µM)
- MIC [2]: 40 µg/mL (≈ 17.6 µM)
- MIC [3]: 40 µg/mL (≈ 17.6 µM)
- MIC [4]: 40 µg/mL (≈ 17.6 µM)
- MIC [5]: 40 µg/mL (≈ 17.6 µM)
- live bacteria (S. aureus USA300 [6]; USA300, 5 μg/mL): 20%
- live bacteria (S. aureus USA300 [6]; USA300, 10 μg/mL): 5%
- LDH release from HaCaT cells (HaCaT cells [7]; 75 μg/mL): low, but still significant, release of dehydrogenase
- cytotoxicity (LDH), % of cells (HaCaT cells [7]; 3 and 6 h): 40%
- cytotoxicity (LDH), % of cells (HaCaT cells [7]; 18 h): 100%
- non-toxic dose for HaCaT cells (HaCaT cells [7]; based on MTT and LDH data): ≤ 50 µg/mL
- MIC (S. aureus USA300 [8]): 17.56 µM (≈ 40 µg/mL)
- MIC [9]: 40 µg/mL (≈ 17.6 µM)
- effect on metabolism of HaCaT cells (MTT) (HaCaT cells [10]; 5 to 75 μg/mL, 3, 6 and 18 h, n = 2): did not affect the metabolism of HaCaT cells
- effect on metabolically active HaCaT cells (MTT) (HaCaT cells [10]; 100 or 200 μg/mL, 3, 6, 18 h): reduced the number of metabolically active cells in a concentration-dependent manner
- α-helical content ([11]; circular dichroism, 30 mM SDS in water): 35%
- cationic charge [11]: +7
- MIC [12]: 30 µg/mL (≈ 13.2 µM)
- reduction in the number of live bacteria in suspension [13]: 74%
- reduction of intracellular USA300 load ([14]; HaCaT infected 2.5 h at MOI 1:50 and 1:100, peptide 50 μg/mL, 3 h): more than 60%
- reduction of MRSA load in keratinocytes ([14]; HaCaT, USA300 MOI 1:50, peptide 50 μg/mL (1.25 × MIC), 1 h, n = 2): 71.5%
- MIC (S. aureus ATCC 25923): 40 µg/mL (≈ 17.6 µM)
- MIC [15]: 40 µg/mL (≈ 17.6 µM)

Source: PMC6801822, “The Bactericidal Activity of Temporin Analogues Against Methicillin Resistant Staphylococcus aureus” (International Journal of Molecular Sciences, 2019)
